Source: patent US8629168B2, “Benzoxazoles and oxazolopyridines being useful as janus kinases inhibitors” (priority 2006, dated 2014)
pIC50: −log10 of the molar value.

Columns and labels:
GST-JAK2 = target: T1, GST-JAK2 (Homo sapiens, UniProt O60674); experiment: JAK2 kinase assay of the general description (alternative method, flash plate); format: biochemical; conditions: 1.0 μM ATP, read-out: IC50 with test in general description (named “alternative method to that given in the examples”) (“flash plate”)
T1 construct: the amino acid domain ASP751-VAL1129 of the JAK2 protein
T1 sequence (O60674 751-1129): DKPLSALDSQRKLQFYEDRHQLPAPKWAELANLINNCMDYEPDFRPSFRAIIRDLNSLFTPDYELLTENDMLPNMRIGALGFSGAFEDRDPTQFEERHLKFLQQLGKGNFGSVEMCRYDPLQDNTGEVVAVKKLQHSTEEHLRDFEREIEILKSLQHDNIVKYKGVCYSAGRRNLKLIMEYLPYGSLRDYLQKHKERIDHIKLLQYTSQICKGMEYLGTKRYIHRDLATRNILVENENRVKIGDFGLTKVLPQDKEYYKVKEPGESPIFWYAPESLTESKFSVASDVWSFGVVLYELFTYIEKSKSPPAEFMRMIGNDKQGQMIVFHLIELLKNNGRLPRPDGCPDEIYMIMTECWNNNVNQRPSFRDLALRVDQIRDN

GST-JAK2(808-1132) = target: T2, GST-JAK2(808-1132) (Homo sapiens, UniProt O60674); experiment: EPK JAK/TYK-kinase family profiling assay (Caliper mobility shift), JAK2; format: biochemical; conditions: Caliper mobility shift assay of Example 187, 20 μM ATP, read-out: IC50 with Test in present Example
T2 construct: GST-JAK2(808-1132) is purchased from Invitrogen; purchased Invitrogen (Carlsbad, USA) #4288
T2 sequence (O60674 808-1132): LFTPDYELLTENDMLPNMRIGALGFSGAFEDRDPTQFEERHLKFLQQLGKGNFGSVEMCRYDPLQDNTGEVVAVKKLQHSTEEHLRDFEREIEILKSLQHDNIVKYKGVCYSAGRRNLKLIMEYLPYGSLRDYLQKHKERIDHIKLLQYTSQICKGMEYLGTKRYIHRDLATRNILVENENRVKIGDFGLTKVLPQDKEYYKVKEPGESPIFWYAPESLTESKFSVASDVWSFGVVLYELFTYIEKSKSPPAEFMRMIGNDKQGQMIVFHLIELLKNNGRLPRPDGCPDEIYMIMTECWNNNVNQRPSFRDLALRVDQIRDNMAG
Summary of the method: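 Caliper mobility-shift assay with the GST-tagged kinase domain and a fluorescently labeled peptide substrate plus ATP, run 60 min at 30° C and then stopped with EDTA buffer. Turnover was taken as the substrate/product ratio. Compounds were tested at eight final concentrations from 10 to 0.003 μM.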

Structure (SMILES) | pIC50 (GST-JAK2) | melting point [°C] | pIC50 (GST-JAK2(808-1132))
COc1cc(Nc2nc3cccc(-c4ccc(S(C)(=O)=O)cc4)c3o2)cc(OC)c1OC [Example 17, [7-(4-Methanesulfonyl-phenyl)-benzooxazol-2-yl]-(3,4,5-trimethoxy-phenyl)-amine] | 7.40 | 205 to 207 | 7.92
COc1cc(Nc2nc3cccc(-c4ccc(C(N)=O)cc4)c3o2)cc(OC)c1OC [Example 16, 4-[2-(3,4,5-Trimethoxy-phenylamino)-benzooxazol-7-yl]-benzamide] | 7.03 | > 280 | 7.46
CNS(=O)(=O)c1ccc(-c2cccc3nc(Nc4cc(OC)c(OC)c(OC)c4)oc23)cc1 [Example 21, N-Methyl-4-[2-(3,4,5-trimethoxy-phenylamino)-benzooxazol-7-yl]-benzenesulfonamide] | 7.80 | 260 to 262 | 7.72
COc1cc(Nc2nc3cccc(-c4ccc(S(N)(=O)=O)cc4)c3o2)cc(OC)c1OC [Example 18, 4-[2-(3,4,5-Trimethoxy-phenylamino)-benzooxazol-7-yl]-benzenesulfonamide] | 8.00 | 247 to 252 | 8.00
COc1cc(Nc2nc3ccnc(-c4ccc(S(N)(=O)=O)cc4)c3o2)cc(OC)c1OC [Example 38, 4-[2-(3,4,5-Trimethoxy-phenylamino)-oxazolo[5,4-c]pyridin-4-yl]-benzenesulfonamide] | 6.35 | > 280 | 6.51
CNC(=O)c1ccc(-c2cccc3nc(Nc4cc(OC)c(OC)c(OC)c4)oc23)cc1 [Example 24, N-Methyl-4-[2-(3,4,5-trimethoxy-phenylamino)-benzooxazol-7-yl]-benzamide] | 7.10 | 258 to 259 | 7.72
